In ChEMBL document CHEMBL1135090, “Non-peptide alpha(v)beta(3) antagonists. Part 3: identification of potent RGD mimetics incorporating novel beta-amino acids as aspartic acid replacements” (Bioorg Med Chem Lett, 2002):

Tests used:
[1] = molecular target: T1, Integrin alpha-IIb/beta-3 (Homo sapiens) (UniProt P05106+P08514); assay: Inhibition of ADP-stimulated alphaIIb-beta3 integrin mediated human platelet aggregation at 10 uM
[2] = molecular target: Integrin alpha-V/beta-3 (Homo sapiens, UniProt P05106+P06756); assay: Inhibition of high affinity radioligand binding to human alphaV-beta3 integrin; type: protein-complex assay
[3] = Compound was tested for plasma clearance on administered orally as aqueous solutions at 1 mpk and by iv at 0.2 mpk; type: ADME, organism-based; details: 0.2 mg/kg
[4] = molecular target: T1, Integrin alpha-IIb/beta-3 (Homo sapiens); assay: Inhibition of ADP-stimulated alphaIIb-beta3 integrin mediated human platelet aggregation at 5.7 uM
[5] = Partition coefficient (logP); type: physicochemical; details: octanol/water
[6] = Bioavailability (dose 1 mg/kg p.o. and 0.2 mg/kg i.v.); type: ADME, organism-based; details: eutheria, in vivo, po
[7] = molecular target: T1, Integrin alpha-IIb/beta-3 (Homo sapiens); assay: Inhibition of ADP-stimulated alphaIIb-beta3 integrin mediated human platelet aggregation at 776 uM
[8] = molecular target: T1, Integrin alpha-IIb/beta-3 (Homo sapiens); assay: Inhibition of ADP-stimulated alphaIIb-beta3 integrin mediated human platelet aggregation at 11 uM

Chain of Integrin alpha-V/beta-3 (P05106 27-788 limits assumed): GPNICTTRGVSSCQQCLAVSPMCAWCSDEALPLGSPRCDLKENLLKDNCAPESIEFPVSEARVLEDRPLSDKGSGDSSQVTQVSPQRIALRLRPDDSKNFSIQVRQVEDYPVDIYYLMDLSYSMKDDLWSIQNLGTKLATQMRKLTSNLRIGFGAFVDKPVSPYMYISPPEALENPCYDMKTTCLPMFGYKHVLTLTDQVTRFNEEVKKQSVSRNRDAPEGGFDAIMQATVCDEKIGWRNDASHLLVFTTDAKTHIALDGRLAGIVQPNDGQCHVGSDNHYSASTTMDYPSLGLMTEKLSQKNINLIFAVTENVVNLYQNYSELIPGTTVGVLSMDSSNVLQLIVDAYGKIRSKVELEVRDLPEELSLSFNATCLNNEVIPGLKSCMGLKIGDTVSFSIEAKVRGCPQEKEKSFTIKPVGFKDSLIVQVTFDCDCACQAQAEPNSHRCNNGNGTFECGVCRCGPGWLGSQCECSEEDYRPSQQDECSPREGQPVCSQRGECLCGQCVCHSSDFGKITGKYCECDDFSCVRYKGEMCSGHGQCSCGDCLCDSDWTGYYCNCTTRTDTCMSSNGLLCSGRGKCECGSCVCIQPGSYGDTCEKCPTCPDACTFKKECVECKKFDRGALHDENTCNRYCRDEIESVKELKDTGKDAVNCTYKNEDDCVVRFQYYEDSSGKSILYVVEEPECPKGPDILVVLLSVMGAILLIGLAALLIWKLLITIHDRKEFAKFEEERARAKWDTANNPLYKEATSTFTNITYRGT
Chain of Integrin alpha-V/beta-3 (P06756 31-889 limits assumed): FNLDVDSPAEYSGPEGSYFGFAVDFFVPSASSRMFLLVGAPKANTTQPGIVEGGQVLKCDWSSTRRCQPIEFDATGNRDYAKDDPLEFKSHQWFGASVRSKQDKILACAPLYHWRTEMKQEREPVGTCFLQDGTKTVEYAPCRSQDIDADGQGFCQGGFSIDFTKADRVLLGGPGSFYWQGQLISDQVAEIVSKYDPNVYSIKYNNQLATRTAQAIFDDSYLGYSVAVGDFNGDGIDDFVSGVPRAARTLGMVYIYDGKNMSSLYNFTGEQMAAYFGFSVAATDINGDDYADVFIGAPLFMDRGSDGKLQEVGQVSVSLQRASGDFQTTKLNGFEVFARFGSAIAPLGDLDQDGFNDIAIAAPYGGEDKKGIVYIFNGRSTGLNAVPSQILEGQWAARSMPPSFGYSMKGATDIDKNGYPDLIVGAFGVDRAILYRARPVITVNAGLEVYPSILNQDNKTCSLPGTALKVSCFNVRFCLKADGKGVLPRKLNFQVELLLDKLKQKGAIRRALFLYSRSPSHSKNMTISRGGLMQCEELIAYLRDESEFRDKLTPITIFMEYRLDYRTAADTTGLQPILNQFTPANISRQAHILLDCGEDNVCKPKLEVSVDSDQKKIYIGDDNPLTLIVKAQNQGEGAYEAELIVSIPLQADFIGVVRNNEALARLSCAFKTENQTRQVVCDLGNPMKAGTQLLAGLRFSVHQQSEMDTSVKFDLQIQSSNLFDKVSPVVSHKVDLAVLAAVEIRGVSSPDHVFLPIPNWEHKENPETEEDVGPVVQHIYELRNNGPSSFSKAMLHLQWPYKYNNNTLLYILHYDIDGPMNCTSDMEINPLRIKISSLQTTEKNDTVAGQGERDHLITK
Chain of Integrin alpha-V/beta-3 (P06756 891-1048 limits assumed): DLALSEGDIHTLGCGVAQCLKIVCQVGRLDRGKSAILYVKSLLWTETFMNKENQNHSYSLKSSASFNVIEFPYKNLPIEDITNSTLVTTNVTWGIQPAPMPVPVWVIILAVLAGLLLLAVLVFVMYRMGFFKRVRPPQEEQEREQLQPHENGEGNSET

Structure (SMILES)	inhibition [1] [%]	IC50 [2] [nM]	also measured
O=C(O)C[C@H](NC(=O)CN1CC[C@H](CCc2ccc3c(n2)NCCC3)C1=O)c1ccc2c(c1)OCC2	60	0.11	
O=C(O)C[C@H](NC(=O)CN1CC[C@H](CCc2ccc3c(n2)NCCC3)C1=O)c1ccc2c(c1)OCO2		0.32	clearance [3]: 25 mL/min/kg; inhibition [4]: 50%; logP [5]: 0.26; bioavailability [6]: 30%
O=C(O)C[C@H](NC(=O)CN1CC[C@H](CCc2ccc3c(n2)NCCC3)C1=O)c1ccc2c(c1)OC(F)(F)O2	3	5.8	logP [5]: 1.44
O=C(O)C[C@H](NC(=O)CN1CC[C@H](CCc2ccc3c(n2)NCCC3)C1=O)c1ccc2c(c1)CCO2	20	1.1	
COc1ccc([C@H](CC(=O)O)NC(=O)CN2CC[C@H](CCc3ccc4c(n3)NCCC4)C2=O)cc1F	30	0.49	
O=C(O)CCNC(=O)CN1CC[C@H](CCc2ccc3c(n2)NCCC3)C1=O		230	
O=C(O)C[C@H](NC(=O)CN1CC[C@H](CCc2ccc3c(n2)NCCC3)C1=O)c1ccccc1	8	4	
O=C(O)C[C@H](NC(=O)CN1CC[C@H](CCc2ccc3c(n2)NCCC3)C1=O)c1cnc2ccccc2c1		0.04	inhibition [7]: 50%
O=C(O)C[C@H](NC(=O)CN1CC[C@H](CCc2ccc3c(n2)NCCC3)C1=O)c1ccc2ncsc2c1	19	3.7	
O=C(O)C[C@H](NC(=O)CN1CC[C@H](CCc2ccc3c(n2)NCCC3)C1=O)c1ccc2nc(O)oc2c1	19		
O=C(O)C[C@H](NC(=O)CN1CC[C@H](CCc2ccc3c(n2)NCCC3)C1=O)c1ccc(-c2ccccc2)c(F)c1	3	0.57	
O=C(O)C[C@H](NC(=O)CN1CC[C@H](CCc2ccc3c(n2)NCCC3)C1=O)c1ccc2ccsc2c1	29	2.2	
O=C(O)C[C@H](NC(=O)CN1CC[C@H](CCc2ccc3c(n2)NCCC3)C1=O)c1cccc(F)c1	6	1.8	
O=C(O)C[C@H](NC(=O)CN1CC[C@H](CCc2ccc3c(n2)NCCC3)C1=O)c1ccc2c(c1)CCC2		29	
O=C(O)C[C@H](NC(=O)CN1CC[C@H](CCc2ccc3c(n2)NCCC3)C1=O)c1cccnc1		0.35	inhibition [8]: 50%
CCOc1ccc([C@H](CC(=O)O)NC(=O)CN2CC[C@H](CCc3ccc4c(n3)NCCC4)C2=O)cc1F	28	0.31	
O=C(O)C[C@H](NC(=O)CN1CC[C@H](CCc2ccc3c(n2)NCCC3)C1=O)c1ccc2[nH]c(=O)oc2c1		0.29	
